From the supplement of paper PMC13380429

Columns and labels:
Conditions in all cases: 72 h
Calu-3 [1] = assay: drug sensitivity score (DSS) for viability; higher = more toxic; extreme values may be limits of the assay
U2OS [2] = assay: as above
HepG2 [3] = assay: as above
Caco-2 [4] = assay: as above
Calu-3 [5] = assay: cell viability relative to DMSO; higher = less toxic
U2OS [6] = assay: as above
HepG2 [7] = assay: as above
Caco-2 [8] = assay: as above
Calu-3 [9] = assay: relative viability EC50 (midpoint between 100% and the lowest measured viability); higher = less toxic
U2OS [10] = assay: as above
HepG2 [11] = assay: as above
Caco-2 [12] = assay: as above
Vero E6 [13] = assay: drug sensitivity score (DSS) for viability; higher = more toxic; extreme values may be limits of the assay
Vero E6 [14] = assay: cell viability relative to DMSO; higher = less toxic

Row | SMILES | drug sensitivity score (Calu-3 [1]) | drug sensitivity score (U2OS [2]) | drug sensitivity score (HepG2 [3]) | drug sensitivity score (Caco-2 [4]) | cell viability (Calu-3 [5]; 1 nM) | cell viability (Calu-3 [5]; 10 nM) | cell viability (Calu-3 [5]; 100 nM) | cell viability (Calu-3 [5]; 1000 nM) | cell viability (Calu-3 [5]; 10000 nM) | cell viability (U2OS [6]; 1 nM) | cell viability (U2OS [6]; 10 nM) | cell viability (U2OS [6]; 100 nM) | cell viability (U2OS [6]; 1000 nM) | cell viability (U2OS [6]; 10000 nM) | cell viability (HepG2 [7]; 1 nM) | cell viability (HepG2 [7]; 10 nM) | cell viability (HepG2 [7]; 100 nM) | cell viability (HepG2 [7]; 1000 nM) | cell viability (HepG2 [7]; 10000 nM) | cell viability (Caco-2 [8]; 1 nM) | cell viability (Caco-2 [8]; 10 nM) | cell viability (Caco-2 [8]; 100 nM) | cell viability (Caco-2 [8]; 1000 nM) | cell viability (Caco-2 [8]; 10000 nM) | relative viability EC50 (Calu-3 [9]) | relative viability EC50 (U2OS [10]) | relative viability EC50 (HepG2 [11]) | relative viability EC50 (Caco-2 [12]) | drug sensitivity score (Vero E6 [13]) | cell viability (Vero E6 [14]; 1 nM) | cell viability (Vero E6 [14]; 10 nM) | cell viability (Vero E6 [14]; 100 nM) | cell viability (Vero E6 [14]; 1000 nM) | cell viability (Vero E6 [14]; 10000 nM)
1 | Cc1c(N)cccc1Cn1ccc(OCCc2cccs2)cc1=O | 0 | 0 | 0 | 0 | 95.9% | 100% | 106% | 102% | 93.4% | 99.5% | 101% | 95.4% | 97.1% | 95% | 93.3% | 104% | 94.1% | 99.8% | 93.2% | 91.2% | 91.6% | 91.1% | 98.5% | 84.3% | > 10 µM | > 10 µM | > 10 µM | > 10 µM | – | – | – | – | – | –
2 | C[C@]1(Cn2ccnn2)[C@H](C(=O)O)N2C(=O)C[C@H]2S1(=O)=O [tazobactam] | 0 | 0 | 0 | 0 | 93.2% | 98.7% | 91.6% | 94.3% | 105% | 95.4% | 102% | 98.9% | 100% | 95.6% | 107% | 102% | 97.4% | 113% | 107% | 81.7% | 96.4% | 91.3% | 94.6% | 85.4% | > 10 µM | > 10 µM | > 10 µM | > 10 µM | – | – | – | – | – | –
3 | CC(=O)O[C@H]1C[C@@]2(C)[C@@H](C[C@@H](O)[C@H]3[C@@]4(C)CC[C@@H](O)[C@@H](C)[C@@H]4CC[C@@]32C)/C1=C(\CCC=C(C)C)C(=O)O [fusidic-acid] | 0.3 | 0 | – | 0 | 96% | 109% | 93.7% | 93.5% | 86.1% | 98.8% | 104% | 99.6% | 106% | 100% | – | – | – | – | – | 103% | 116% | 89.6% | 104% | 99.5% | > 10 µM | > 10 µM | – | > 10 µM | – | – | – | – | – | –
4 | CO[C@H]1C[C@@H]2CC[C@@H](C)[C@@](O)(O2)C(=O)C(=O)N2CCCC[C@H]2C(=O)O[C@H]([C@H](C)C[C@@H]2CC[C@H](n3cnnn3)[C@H](OC)C2)CC(=O)[C@H](C)/C=C(\C)[C@@H](O)[C@@H](OC)C(=O)[C@H](C)C[C@H](C)/C=C/C=C/C=C/1C [zotarolimus] | 22.1 | 19.9 | 15.4 | 19.5 | 68.2% | 59.4% | 54.5% | 46.3% | 52.2% | 93.4% | 61.8% | 60.2% | 56.9% | 52.5% | 84.4% | 74% | 63.1% | 62.9% | 61.1% | 82.5% | 63.1% | 60% | 52.9% | 60.3% | < 0.001 µM | – | – | – | 11.9 | 92.6% | 85.2% | 69.6% | 61% | 58.7%
5 | N[C@H](Cc1cc(I)c(Oc2ccc(O)c(I)c2)c(I)c1)C(=O)O [liothyronine-(isomer)] | – | 0 | 0 | 0 | – | – | – | – | – | 101% | 99.9% | 96.8% | 102% | 96% | 109% | 99.7% | 107% | 102% | 105% | 99.7% | 92.9% | 100% | 104% | 92.7% | – | – | – | – | 0 | 98.8% | 92.9% | 93.1% | 90.7% | 91.1%
6 | O=C(Nc1nc2cccc(-c3ccc(CN4CCS(=O)(=O)CC4)cc3)n2n1)C1CC1 [filgotinib] | 0 | – | 2.3 | 0 | 95.7% | 105% | 98.2% | 87.5% | 97.4% | – | – | – | – | – | 100% | 99.1% | 96.4% | 102% | 53.4% | 111% | 104% | 93.2% | 95.7% | 96.5% | > 10 µM | – | – | > 10 µM | – | – | – | – | – | –
7 | Cc1cccc2c1CC[C@H](CN1CCC(c3c(Cl)cccc3Cl)CC1)C[C@@H]2O | 4.2 | 2.8 | 5.5 | 4.7 | 93.8% | 106% | 89.1% | 83.8% | 51.2% | 102% | 106% | 95.2% | 94.2% | 62.1% | 104% | 102% | 93.3% | 86.5% | 38.5% | 93.9% | 95.8% | 91.3% | 78.3% | 58.1% | – | – | 1.65 µM | – | 2.2 | 99.2% | 104% | 95% | 90.2% | 70%
8 | CS(=O)(=O)c1ccc(-c2nnc(/C=C/c3nnc(-c4ccc(C#N)cc4)o3)n2-c2ccccc2Cl)nc1 [G007-LK] | 11.1 | 1.4 | 0.1 | 2.6 | 105% | 93.4% | 67.1% | 66% | 77.2% | 94.7% | 98% | 91.8% | 85.8% | 83.5% | 107% | 106% | 101% | 92.8% | 89.5% | 104% | 108% | 93.1% | 83.1% | 94.1% | – | > 10 µM | > 10 µM | > 10 µM | 7.5 | 99.2% | 105% | 95.1% | 61.7% | 57.8%
9 | O=c1[nH]c(=O)c2ccccc2o1 [carsalam] | 0 | 0 | 0 | 0 | 89.6% | 93.5% | 104% | 106% | 108% | 98.9% | 102% | 97.3% | 102% | 103% | 96% | 100% | 103% | 98.1% | 101% | 99.5% | 95.4% | 92.5% | 104% | 98.8% | > 10 µM | > 10 µM | > 10 µM | > 10 µM | – | – | – | – | – | –
10 | CCCCCCN(CCCCCC)C(=O)Cc1c(-c2ccc(Cl)cc2)[nH]c2ccc(Cl)cc12 [FGIN-1-43] | 0 | 0 | 0 | 0.5 | 91.5% | 106% | 99.4% | 101% | 103% | 98.4% | 103% | 103% | 104% | 95.2% | 104% | 94.9% | 106% | 98.2% | 97% | 101% | 102% | 101% | 93.5% | 86.8% | > 10 µM | > 10 µM | > 10 µM | > 10 µM | – | – | – | – | – | –
11 | c1cc(Cc2cnc[nH]2)ccn1 [immethridine] | 0 | 0 | 0 | 0 | 107% | 96.8% | 94.6% | 94.8% | 103% | 94.1% | 99.9% | 97.4% | 102% | 98.4% | 93.8% | 104% | 99.1% | 93.4% | 97% | 99.7% | 103% | 95% | 97.1% | 90.3% | > 10 µM | > 10 µM | > 10 µM | > 10 µM | – | – | – | – | – | –
